The assay deals with 695427-040-R-J1-PDC complex spheroid viability. As to the kind of experiment: Anticancer human tumor 695427-040-R-J1-PDC patient-derived colon adenocarcinoma cell line growth inhibition [POLQ]. Conditions: for viability, T/C: stronger effect = lower value. Here is the method:
Multicellular complex tumor spheroid response to Polymerase (POL) inhibitors (novobiocin, ART-558, RP6685) in combination with a variety of drugs and investigational agents in selected tumor cell lines
The POL inhibitors (novobiocin, ART-558, and RP6685) were evaluated both individually and in combination with standard of care and investigational anticancer small molecules within a complex spheroid model of solid tumors. . Complex spheroids include a stromal component modeled by human endothelial cells (HUVEC) and fibroblasts modeled by human mesenchymal stem cells (MSCs). The concentration ranges selected for each drug and investigational agent were based upon clinically achievable concentrations if the clinical Cmax of the agent was known.
Compounds. The drugs and investigational agents: novobiocin (NSC847541), ART-558 (NSC835418), RP-6685 (NSC848927), peposertib (NSC802822), ceralasertib (NSC780249), elimusertib (NSC800525), camonsertib (NSC841442), AZD-1390 (NSC803789), olaparib (NSC753686), talazoparib (NSC767125), rucaparib (NSC756644), sotorasib (NSC818433), MRTX-1133 (NSC836407), SN-38 (NSC673596), topotecan (NSC609699), epotoside (NSC141540), doxorubicin (NSC123127), gemcitabine (NSC613327), 5-fluorouracil (NSC19893), paclitaxel (NSC125973), vemurafenib (NSC761431), MSA-2 (NSC828583), SN-011 (NSC837082), adavosertib (NSC754352), prexasertib (NSC758257), carboplatin (NSC241240) and oxaliplatin (NSC266046), were obtained from the National Cancer Institute (NCI) Developmental Therapeutics Program Chemical Repository (21). The FDA-approved anticancer drug set is available from the Developmental Therapeutics Program at https://dtp.cancer.gov/organization/dscb/obtaining/. […] The stock solutions were prepared in dimethyl sulfoxide (DMSO, Sigma-Aldrich, St. Louis, MO, cat. D2650), except for the platinum compounds which were prepared in saline (Quality Biological, Gaithersburg, MD, cat. 114-055-101), at 800-fold the tested concentration and stored at -70 degrees C prior to their use. All drugs and investigational agents were tested over a range starting from a high concentration at or near the clinical Cmax and decreasing in half-log increments. If the clinical Cmax for an agent had not been determined, the highest concentration tested was 10 microM, except for SN-38, which was tested at a high concentration of 1 microM.
Cell Culture. All cells were maintained in an incubator at 37 degrees C and 5% CO2 with 95% humidity. The PDC lines were cultured according to standard operating procedures established by the NCI PDMR (https://pdmr.cancer.gov). Table 3 of the manuscript, lists the cell lines along with the number of the three cell types plated to form the mct-spheroids and media for tumor cell growth. After thawing, all PDC lines, except 997537-175-T-J1-PDC and 415267-285-R-J2-PDC, were cultured in Matrigel-coated flasks prepared with a working solution of 1X Ham's F-12 nutrient mix, without supplementation (Thermo Fisher Scientific, cat. 11765054), 100 U/mL penicillin-streptomycin (Thermo Fisher Scientific, cat. 15140122), and 2.5% Matrigel (Corning Inc., Corning, NY, cat. 354248) for the first three passages. The two PDC lines 997537-175-T-J1-PDC and 415267-285-R-J2-PDC were cultured on uncoated flasks. The 857933-349-R-J2-PDC line was cultured in 6C/Colon 1B media containing advanced DMEM/F-12 (Thermo Fisher Scientific, cat. 12634028), 10 mM HEPES (Thermo Fisher Scientific, cat. 15630080), 1X GlutaMAX supplement (Thermo Fisher Scientific, cat. 35050061), 0.1 mg/mL primocin (InvivoGen, San Diego, CA, cat. ant-pm-2), 10% defined fetal bovine serum, heat inactivated (HyClone Laboratories Inc., Logan, UT, cat. SH30070.03HI), 50% L-WRN conditioned media (ATCC, cat. CRL-3276), 1.25 mM N-Acetyl-L-cysteine (Sigma-Aldrich, cat. A9165), 10 mM nicotinamide (Sigma-Aldrich, cat. N0636), 1X B-27 supplement (Thermo Fisher Scientific, cat. 17504044), 1X N-2 supplement (Thermo Fisher Scientific, cat. […]

The mark [1] stands for this setting: curve of first compound, second compound 0.0316 µM.
[2] abbreviates: curve of first compound, second compound 0.1 µM.
[3] abbreviates: curve of first compound, second compound 0.316 µM.
The mark [4] stands for this setting: curve of first compound, second compound 1 µM.
The mark [5] stands for this setting: curve of first compound, second compound 3.16 µM.
The mark [6] stands for this setting: curve of first compound, second compound 10 µM.
Setting [7] is: second compound 0.0316 µM, first compound 0.0316 µM.
Where [8] appears, read: second compound 0.0316 µM, first compound 0.1 µM.
[9] abbreviates: second compound 0.0316 µM, first compound 0.316 µM.
[10] abbreviates: second compound 0.0316 µM, first compound 1 µM.
Where [11] appears, read: second compound 0.1 µM, first compound 0.0316 µM.
The mark [12] stands for this setting: second compound 0.1 µM, first compound 0.1 µM.
Setting [13] is: second compound 0.1 µM, first compound 0.316 µM.
Where [14] appears, read: second compound 0.1 µM, first compound 1 µM.
Where [15] appears, read: second compound 0.316 µM, first compound 0.0316 µM.
The mark [16] stands for this setting: second compound 0.316 µM, first compound 0.1 µM.
Setting [17] is: second compound 0.316 µM, first compound 0.316 µM.
The mark [18] stands for this setting: second compound 0.316 µM, first compound 1 µM.
Setting [19] is: second compound 1 µM, first compound 0.0316 µM.
Where [20] appears, read: second compound 1 µM, first compound 0.1 µM.
Setting [21] is: second compound 1 µM, first compound 0.316 µM.
Setting [22] is: second compound 1 µM, first compound 1 µM.
The mark [23] stands for this setting: second compound 3.16 µM, first compound 0.0316 µM.
Setting [24] is: second compound 3.16 µM, first compound 0.1 µM.
[25] abbreviates: second compound 3.16 µM, first compound 0.316 µM.
Where [26] appears, read: second compound 3.16 µM, first compound 1 µM.
[27] abbreviates: second compound 10 µM, first compound 0.0316 µM.
[28] abbreviates: second compound 10 µM, first compound 0.1 µM.
[29] abbreviates: second compound 10 µM, first compound 0.316 µM.
Setting [30] is: second compound 10 µM, first compound 1 µM.

Values joined by “and” are separate entries in the source; they are usually repeats but may differ in a detail not shown here. Identical values can stand only once. Where only a bound is given, the exact number is not on record here.
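Further: spheroids exposed to compounds for seven days.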

`C#Cc1c(F)ccc2cc(O)cc(-c3ncc4c(N5CC6CCC(C5)N6)nc(OCC56CCCN5CC(F)C6)nc4c3F)c12` (configuration not stated): the viability, T/C – broadly, the ratio of treated to control – by setting is: (compound 0.0316 µM) 102% (2×) and 106%; (compound 0.1 µM) 93.8% and 98.8% and 105%; (compound 0.316 µM) 95% and 98.2% and 97.1%; (compound 1 µM) 98.6% and 102% and 107%; (compound 3.16 µM) 90.7% and 98.5% and 95%; (compound 10 µM) 76.6% and 91% and 87.1%. Further, the IC50 (in general, the concentration that gives 50% inhibition) (curve of compound) was over 10 µM.
Consider `CC1COCCN1c1cc(C2(O)CC3CCC(C2)O3)c2cnn(-c3ccn[nH]3)c2n1` (configuration not stated), for which the viability, T/C (compound 0.0316 µM) is 100% and 101% and 103%; the viability, T/C (compound 0.1 µM) was 85.7% and 87.4% and 94.1%; the viability, T/C (compound 0.316 µM) was 79.1% and 75.7% and 85.8%; the viability, T/C (compound 1 µM) is 64.4% and 68.9% and 78.5%; the viability, T/C (compound 3.16 µM) is 55.6% and 52% and 69%; the viability, T/C (compound 10 µM) is 46.3% and 44.4% and 55.9%. Moreover, for the setting “curve of compound”, the IC50 was 6.3 µM and 5.11 µM and > 10 µM.
In the case of `CCc1cc2c(N3CCc4c(cc(Cn5ccnc5)cc4-c4cn(C)nc4C(F)(F)F)C3=O)cc(C)nc2c(OC)n1`, the viability, T/C reads like this: (compound 0.0316 µM) 107% and 108% and 105%; (compound 0.1 µM) 105% and 101% and 108%; (compound 0.316 µM) 110% and 98.6% and 100%; (compound 1 µM) 108% and 101% and 96.8%; (compound 3.16 µM) 104% and 112% and 110%; (compound 10 µM) 96.4% and 97.9% and 106%. The IC50 (curve of compound) is over 10 µM.
For the molecule `O=C(Nc1ccc(O)c(NS(=O)(=O)c2ccc(F)cc2)c1)c1ccc(-c2ccccc2)cc1`, the viability, T/C is 112% and 106% (2×) (compound 0.0316 µM); 94.9% and 102% and 99.2% (compound 0.1 µM); 99.2% and 96.5% and 105% (compound 0.316 µM); 106% and 111% and 105% (compound 1 µM); 102% and 101% and 110% (compound 3.16 µM); 94% and 98.5% and 90.2% (compound 10 µM). Moreover, the IC50 (curve of compound) was over 10 µM.
On to `C=CCn1c(=O)c2cnc(Nc3ccc(N4CCN(C)CC4)cc3)nc2n1-c1cccc(C(C)(C)O)n1` + COC1C(OC(N)=O)C(O)C(Oc2ccc3c(O)c(NC(=O)c4ccc(O)c(CC=C(C)C)c4)c(=O)oc3c2C)OC1(C)C, for which the IC50 under setting [1] is over 1 µM; the IC50 under setting [2] was over 1 µM; the IC50 under setting [3] was over 1 µM; the IC50 under setting [4] is over 1 µM; the IC50 under setting [5] is over 1 µM; the IC50 under setting [6] was over 1 µM. Also, the viability, T/C by setting is: (second compound 0.0316 µM, first compound 0.00316 µM) 98.2%; (second compound 0.0316 µM, first compound 0.01 µM) 91.8%; under setting [7], 110%; under setting [8], 95.3%; under setting [9], 95.5%; under setting [10], 82.2%. Further, the viability, T/C (second compound 0.1 µM, first compound 0.00316 µM) was 103%; the viability, T/C (second compound 0.1 µM, first compound 0.01 µM) is 103%; the viability, T/C under setting [11] is 96.3%; the viability, T/C under setting [12] is 102%; the viability, T/C under setting [13] is 98.4%; the viability, T/C under setting [14] was 80.3%. For the same molecule, the viability, T/C was 105% (second compound 0.316 µM, first compound 0.00316 µM); 114% (second compound 0.316 µM, first compound 0.01 µM); 103% under setting [15]; 105% under setting [16]; 91.8% under setting [17]; 70.9% under setting [18]. The viability, T/C is 99.2% (second compound 1 µM, first compound 0.00316 µM); 98.5% (second compound 1 µM, first compound 0.01 µM); 101% under setting [19]; 96.3% under setting [20]; 97.3% under setting [21]; 72.4% under setting [22]. Moreover, the viability, T/C is, setting by setting: (second compound 3.16 µM, first compound 0.00316 µM) 92.3%; (second compound 3.16 µM, first compound 0.01 µM) 102%; under setting [23], 106%; under setting [24], 97.4%; under setting [25], 95.3%; under setting [26], 79.1%. Also, the viability, T/C by setting is: (second compound 10 µM, first compound 0.00316 µM) 97.9%; (second compound 10 µM, first compound 0.01 µM) 95%; under setting [27], 106%; under setting [28], 101%; under setting [29], 103%; under setting [30], 71.7%.
For `CC(C)n1c(=O)n(C)c2cnc3cc(F)c(-c4ccc(OCCCN5CCCCC5)nc4)cc3c21` + COC1C(OC(N)=O)C(O)C(Oc2ccc3c(O)c(NC(=O)c4ccc(O)c(CC=C(C)C)c4)c(=O)oc3c2C)OC1(C)C, the IC50 under setting [1] was over 10 µM; the IC50 under setting [2] was over 10 µM; the IC50 under setting [3] is over 10 µM; the IC50 under setting [4] was over 10 µM; the IC50 under setting [5] was over 10 µM; the IC50 under setting [6] is over 10 µM. Besides, the viability, T/C by setting is: under setting [7], 99.3%; under setting [8], 98.7%; under setting [9], 109%; under setting [10], 113%; (second compound 0.0316 µM, first compound 3.16 µM) 110%; (second compound 0.0316 µM, first compound 10 µM) 82.6%. Further, the viability, T/C under setting [11] is 114%; the viability, T/C under setting [12] is 101%; the viability, T/C under setting [13] is 112%; the viability, T/C under setting [14] is 118%; the viability, T/C (second compound 0.1 µM, first compound 3.16 µM) is 101%; the viability, T/C (second compound 0.1 µM, first compound 10 µM) is 80.1%. The viability, T/C under setting [15] was 111%; the viability, T/C under setting [16] is 103%; the viability, T/C under setting [17] was 110%; the viability, T/C under setting [18] is 101%; the viability, T/C (second compound 0.316 µM, first compound 3.16 µM) was 114%; the viability, T/C (second compound 0.316 µM, first compound 10 µM) is 74.4%. Moreover, the viability, T/C by setting is: under setting [19], 110%; under setting [20], 104%; under setting [21], 108%; under setting [22], 112%; (second compound 1 µM, first compound 3.16 µM) 105%; (second compound 1 µM, first compound 10 µM) 77.2%. For the same molecule, the viability, T/C reads like this: under setting [23], 106%; under setting [24], 102%; under setting [25], 103%; under setting [26], 109%; (second compound 3.16 µM, first compound 3.16 µM) 102%; (second compound 3.16 µM, first compound 10 µM) 79%. For the same molecule, the viability, T/C reads like this: under setting [27], 106%; under setting [28], 99.5%; under setting [29], 110%; under setting [30], 113%; (second compound 10 µM, first compound 3.16 µM) 114%; (second compound 10 µM, first compound 10 µM) 77.6%.
